Two molecules from ChEMBL document CHEMBL4630903, “Data for DCP probe BI-2540” (2021) can be followed below.

The nature of data set [1]: HIV1 reverse transcriptase picogreen fluorescence assay (enzymatic). Set-up: species or system Human immunodeficiency virus 1.
The target of data set [2] is 5-hydroxytryptamine receptor 1B (Homo sapiens) (UniProt P28222). As to the kind of experiment: 5HT1B(H) Eurofins SafetyScreen44 (BI). As to conditions: filed as antagonist, Compound concentration 10.0 uM.
Data set [3] deals with Tyrosine-protein kinase Lck (Homo sapiens) (UniProt P06239). As to the kind of experiment: LCK_CE Eurofins SafetyScreen44 (BI). As to conditions: Compound concentration 10.0 uM.
Data set [4] concerns the target 3',5'-cyclic-AMP phosphodiesterase 4D (Homo sapiens) (UniProt Q08499). Briefly: PDE4D2 Eurofins SafetyScreen44 (BI). As to conditions: Compound concentration 10.0 uM.
Data set [5] deals with D(2) dopamine receptor (Homo sapiens) (UniProt P14416). Briefly: D2SH_AGON Eurofins SafetyScreen44 (BI). As to conditions: filed as agonist, Compound concentration 10.0 uM.
The target of data set [6] is Prostaglandin G/H synthase 1 (Homo sapiens) (UniProt P23219). Briefly: COX-1 Eurofins SafetyScreen44 (BI). As to conditions: Compound concentration 10.0 uM.
Chain of Prostaglandin G/H synthase 1 (Homo sapiens) (P23219 whole entry): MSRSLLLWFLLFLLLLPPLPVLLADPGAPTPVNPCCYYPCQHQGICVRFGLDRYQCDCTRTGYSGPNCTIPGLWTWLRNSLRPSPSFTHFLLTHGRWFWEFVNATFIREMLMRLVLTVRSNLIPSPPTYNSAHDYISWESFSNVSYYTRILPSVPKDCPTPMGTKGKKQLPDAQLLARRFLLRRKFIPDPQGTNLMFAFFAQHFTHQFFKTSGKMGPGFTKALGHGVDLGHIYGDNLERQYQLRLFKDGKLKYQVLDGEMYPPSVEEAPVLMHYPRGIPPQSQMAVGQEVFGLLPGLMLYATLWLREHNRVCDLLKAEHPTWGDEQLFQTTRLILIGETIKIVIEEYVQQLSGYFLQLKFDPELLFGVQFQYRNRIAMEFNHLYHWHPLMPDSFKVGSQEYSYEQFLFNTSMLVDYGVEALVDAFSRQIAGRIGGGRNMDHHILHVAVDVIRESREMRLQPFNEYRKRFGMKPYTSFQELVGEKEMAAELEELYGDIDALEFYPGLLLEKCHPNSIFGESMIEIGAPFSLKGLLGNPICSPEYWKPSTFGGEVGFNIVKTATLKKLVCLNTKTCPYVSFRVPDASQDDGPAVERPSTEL
Data set [7] concerns the target Alpha-1A adrenergic receptor (Homo sapiens) (UniProt P35348). Briefly: ALPHA1AH_ANTAG Eurofins SafetyScreen44 (BI). As to conditions: filed as antagonist, Compound concentration 10.0 uM.
The target in data set [8] is Gamma-aminobutyric acid receptor subunit alpha-1 (Rattus norvegicus) (UniProt P62813). Briefly: BZD/CENTR/R Eurofins SafetyScreen44 (BI). As to conditions: Compound concentration 10.0 uM.
For another data set, the target named is hERG (KCNH2) (Homo sapiens, UniProt Q12809). Briefly: HERG_DOFETILIDE Eurofins SafetyScreen44 (BI). Set-up: mode of action inhibitor. As to conditions: probe [3H] dofetilide, compound concentration 10 uM, read-out: % Ctrl.
Data set [9] in a line: HIV viral replication assay (ELISA). As to conditions: Human immunodeficiency virus 1, C8166. Format: cell-based.
The target in data set [10] is 5-hydroxytryptamine receptor 2A (Homo sapiens) (UniProt P28223). As to the kind of experiment: 5HT2AH_AGON Eurofins SafetyScreen44 (BI). As to conditions: filed as agonist, Compound concentration 10.0 uM.
For data set [11], the target named is D(1A) dopamine receptor (Homo sapiens) (UniProt P21728). Briefly: D1/H Eurofins SafetyScreen44 (BI). As to conditions: filed as antagonist, Compound concentration 10.0 uM.
The target in a further data set is MAO-A (Rattus norvegicus, UniProt P21396). Briefly: MAO-A_ANTAG Eurofins SafetyScreen44 (BI). Set-up: mode of action antagonist; scale not given: the % may be the effect or the level left. As to conditions: compound concentration 10 uM, read-out: % Ctrl.
Data set [12] addresses Muscarinic acetylcholine receptor M1 (Homo sapiens) (UniProt P11229). Briefly: M1/H Eurofins SafetyScreen44 (BI). As to conditions: Compound concentration 10.0 uM.
The target of data set [13] is 5-hydroxytryptamine receptor 2B (Homo sapiens) (UniProt P41595). As to the kind of experiment: 5HT2B/H AG Eurofins SafetyScreen44 (BI). As to conditions: filed as agonist, Compound concentration 10.0 uM.
Chain of 5-hydroxytryptamine receptor 2B (Homo sapiens) (P41595 whole entry): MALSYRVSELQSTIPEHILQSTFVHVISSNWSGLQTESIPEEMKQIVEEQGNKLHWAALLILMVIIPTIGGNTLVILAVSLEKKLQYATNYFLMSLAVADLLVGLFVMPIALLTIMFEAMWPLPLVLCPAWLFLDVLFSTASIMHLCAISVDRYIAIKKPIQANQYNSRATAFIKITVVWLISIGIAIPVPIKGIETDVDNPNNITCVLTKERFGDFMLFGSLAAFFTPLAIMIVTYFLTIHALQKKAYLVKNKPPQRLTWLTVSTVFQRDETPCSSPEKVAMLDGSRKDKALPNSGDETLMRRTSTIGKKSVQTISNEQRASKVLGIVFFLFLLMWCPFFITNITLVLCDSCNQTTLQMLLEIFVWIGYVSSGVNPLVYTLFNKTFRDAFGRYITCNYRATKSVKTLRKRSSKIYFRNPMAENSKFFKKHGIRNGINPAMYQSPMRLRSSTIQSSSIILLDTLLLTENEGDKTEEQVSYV
Data set [14] concerns the target Glucocorticoid receptor (Homo sapiens) (UniProt P04150). Briefly: GCORTICOID/H Eurofins SafetyScreen44 (BI). As to conditions: Compound concentration 10.0 uM.
The target in data set [15] is Endothelin-1 receptor (Homo sapiens) (UniProt P25101). Briefly: ETA/H Eurofins SafetyScreen44 (BI). As to conditions: Compound concentration 10.0 uM.
Data set [16] concerns the target Angiotensin-converting enzyme (Homo sapiens) (UniProt P12821). Briefly: ACE(HU_AMTCH400) Eurofins SafetyScreen44 (BI). As to conditions: Compound concentration 10.0 uM.
Data set [17] addresses Androgen receptor (Homo sapiens) (UniProt P10275). Briefly: ANDROGEN/H Eurofins SafetyScreen44 (BI). As to conditions: Compound concentration 10.0 uM.
The target of data set [18] is Cholecystokinin receptor type A (Homo sapiens) (UniProt P32238). As to the kind of experiment: CCKA/H Eurofins SafetyScreen44 (BI). As to conditions: Compound concentration 10.0 uM.
Data set [19] concerns the target 5-hydroxytryptamine receptor 3A (Homo sapiens) (UniProt P46098). As to the kind of experiment: 5HT3/H Eurofins SafetyScreen44 (BI). As to conditions: Compound concentration 10.0 uM.
Data set [20] has as its target Histamine H2 receptor (Homo sapiens) (UniProt P25021). As to the kind of experiment: H2/APT/HS Eurofins SafetyScreen44 (BI). As to conditions: filed as antagonist, Compound concentration 10.0 uM.
In data set [21] the target is Muscarinic acetylcholine receptor M2 (Homo sapiens) (UniProt P08172). As to the kind of experiment: M2/H Eurofins SafetyScreen44 (BI). As to conditions: filed as antagonist, Compound concentration 10.0 uM.
Data set [22] addresses Vasopressin V1a receptor (Homo sapiens) (UniProt P37288). Briefly: V1A/HUM Eurofins SafetyScreen44 (BI). As to conditions: Compound concentration 10.0 uM.
Data set [23] concerns the target Sodium-dependent serotonin transporter (Homo sapiens) (UniProt P31645). As to the kind of experiment: SLC6A4/H Eurofins SafetyScreen44 (BI). As to conditions: filed as antagonist, Compound concentration 10.0 uM.
Data set [24] addresses Muscarinic acetylcholine receptor M3 (Homo sapiens) (UniProt P20309). As to the kind of experiment: M3/H Eurofins SafetyScreen44 (BI). As to conditions: Compound concentration 10.0 uM.
The target of data set [25] is Glutamate receptor ionotropic, NMDA 2A (Rattus norvegicus) (UniProt Q00959). Briefly: NMDA/R Eurofins SafetyScreen44 (BI). As to conditions: Compound concentration 10.0 uM.
The target in data set [26] is Sodium-dependent dopamine transporter (Homo sapiens) (UniProt Q01959). As to the kind of experiment: DATRANS/HUM Eurofins SafetyScreen44 (BI). As to conditions: Compound concentration 10.0 uM.
Data set [27] addresses Sodium-dependent noradrenaline transporter (Homo sapiens) (UniProt P23975). Briefly: NEUP/H Eurofins SafetyScreen44 (BI). As to conditions: Compound concentration 10.0 uM.
In data set [28] the target is Cannabinoid receptor 2 (Homo sapiens) (UniProt P34972). As to the kind of experiment: CB2/PERIPH/H Eurofins SafetyScreen44 (BI). As to conditions: Compound concentration 10.0 uM.
Chain of Cannabinoid receptor 2 (Homo sapiens) (P34972 whole entry): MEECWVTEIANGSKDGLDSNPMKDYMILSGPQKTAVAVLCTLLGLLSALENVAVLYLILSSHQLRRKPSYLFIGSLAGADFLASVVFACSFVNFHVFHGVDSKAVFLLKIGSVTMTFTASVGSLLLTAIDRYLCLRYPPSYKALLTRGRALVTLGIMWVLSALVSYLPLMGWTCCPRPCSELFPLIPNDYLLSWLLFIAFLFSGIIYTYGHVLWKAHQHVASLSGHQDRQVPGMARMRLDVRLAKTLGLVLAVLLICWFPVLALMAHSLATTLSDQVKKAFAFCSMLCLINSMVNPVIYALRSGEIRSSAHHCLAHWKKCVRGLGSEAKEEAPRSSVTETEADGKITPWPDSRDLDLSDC
For data set [29], the target named is Kappa-type opioid receptor (Homo sapiens) (UniProt P41145). As to the kind of experiment: KAPPA(KOP)_HU Eurofins SafetyScreen44 (BI). As to conditions: Compound concentration 10.0 uM.
Chain of Kappa-type opioid receptor (Homo sapiens) (P41145 whole entry): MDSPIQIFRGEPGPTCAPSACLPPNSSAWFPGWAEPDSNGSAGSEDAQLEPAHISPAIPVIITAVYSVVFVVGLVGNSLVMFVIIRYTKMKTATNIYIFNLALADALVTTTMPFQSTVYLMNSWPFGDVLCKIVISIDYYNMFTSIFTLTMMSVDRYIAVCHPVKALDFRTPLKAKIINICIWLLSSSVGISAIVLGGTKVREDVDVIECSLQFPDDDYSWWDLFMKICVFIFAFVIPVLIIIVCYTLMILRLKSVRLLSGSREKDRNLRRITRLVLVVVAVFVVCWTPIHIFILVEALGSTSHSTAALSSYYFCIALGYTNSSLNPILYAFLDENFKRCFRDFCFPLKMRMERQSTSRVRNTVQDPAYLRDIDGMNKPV
The target of data set [30] is cGMP-inhibited 3',5'-cyclic phosphodiesterase 3A (Homo sapiens) (UniProt Q14432). As to the kind of experiment: PDE3A Eurofins SafetyScreen44 (BI). As to conditions: Compound concentration 10.0 uM.
Data set [31] concerns the target Mu-type opioid receptor (Homo sapiens) (UniProt P35372). Briefly: MU/H Eurofins SafetyScreen44 (BI). As to conditions: Compound concentration 10.0 uM.
The target in data set [32] is Cannabinoid receptor 1 (Homo sapiens) (UniProt P21554). As to the kind of experiment: CB1(HU)_AGON Eurofins SafetyScreen44 (BI). As to conditions: filed as agonist; Compound concentration 10.0 uM.
Data set [33] addresses L-type Ca2+ channel (dihydropyridine site), Cav1.2 alpha-1C (Rattus norvegicus, UniProt P22002). As to the kind of experiment: CA+/DHPSI/R Eurofins SafetyScreen44 (BI). Details: mode of action inhibitor. As to conditions: rat brain, probe [3H](+)PN200-110, compound concentration 10 uM, read-out: % Ctrl.
Data set [34] deals with 5-hydroxytryptamine receptor 1A (Homo sapiens) (UniProt P08908). As to the kind of experiment: 5HT1A/H Eurofins SafetyScreen44 (BI). As to conditions: Compound concentration 10.0 uM.
Data set [35] deals with Beta-2 adrenergic receptor (Homo sapiens) (UniProt P07550). Briefly: BETA2/HUM Eurofins SafetyScreen44 (BI). As to conditions: filed as antagonist, Compound concentration 10.0 uM.
The nature of data set [36]: HIV 1 luciferase assay. The data set is classed as cell-based, Human immunodeficiency virus 1. As to conditions: c8166.
The target in data set [37] is Neuronal acetylcholine receptor; alpha4/beta2 (Homo sapiens) (UniProt P17787+P43681). Briefly: N_NEURO_A4B2 Eurofins SafetyScreen44 (BI). As to conditions: filed as agonist, Compound concentration 10.0 uM. The data set is classed as protein-complex assay.
The target of data set [38] is Histamine H1 receptor (Homo sapiens) (UniProt P35367). As to the kind of experiment: H1/PYRIL/HS Eurofins SafetyScreen44 (BI). As to conditions: Compound concentration 10.0 uM.
In data set [39] the target is Adenosine receptor A2a (Homo sapiens) (UniProt P29274). As to the kind of experiment: A2A/H Eurofins SafetyScreen44 (BI). As to conditions: filed as antagonist, Compound concentration 10.0 uM.
Data set [40] concerns the target Prostaglandin G/H synthase 2 (Homo sapiens) (UniProt P35354). Briefly: COX-2 Eurofins SafetyScreen44 (BI). As to conditions: Compound concentration 10.0 uM.
The target of data set [41] is Potassium voltage-gated channel subfamily V member 1 (Rattus norvegicus) (UniProt P97557). Briefly: K+/VOLT/RA Eurofins SafetyScreen44 (BI). As to conditions: Compound concentration 10.0 uM.
In data set [42] the target is Alpha-2A adrenergic receptor (Homo sapiens) (UniProt P08913). As to the kind of experiment: ALPHA2A/HU Eurofins SafetyScreen44 (BI). As to conditions: Compound concentration 10.0 uM.
For data set [43], the target named is Delta-type opioid receptor (Homo sapiens) (UniProt P41143). As to the kind of experiment: DELTA2/H Eurofins SafetyScreen44 (BI). As to conditions: Compound concentration 10.0 uM.
Chain of Delta-type opioid receptor (Homo sapiens) (P41143 whole entry): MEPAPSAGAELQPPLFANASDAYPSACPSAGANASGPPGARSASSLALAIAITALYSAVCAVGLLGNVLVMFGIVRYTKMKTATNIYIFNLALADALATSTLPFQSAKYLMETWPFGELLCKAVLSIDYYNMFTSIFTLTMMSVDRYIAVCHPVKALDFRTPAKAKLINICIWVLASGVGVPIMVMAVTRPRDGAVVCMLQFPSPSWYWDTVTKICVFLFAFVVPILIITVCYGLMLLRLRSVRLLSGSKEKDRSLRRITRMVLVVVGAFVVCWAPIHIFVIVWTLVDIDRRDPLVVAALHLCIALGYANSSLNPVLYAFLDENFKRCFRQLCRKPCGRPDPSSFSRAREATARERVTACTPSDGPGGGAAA
The target of data set [44] is Beta-1 adrenergic receptor (Homo sapiens) (UniProt P08588). Briefly: BETA1/HUM Eurofins SafetyScreen44 (BI). As to conditions: Compound concentration 10.0 uM.

Structures are written as SMILES. Calls of active or inactive are those of the source. The calls are words filed in the database; no cut-off is given here.

Chain of Vasopressin V1a receptor (Homo sapiens) (P37288 whole entry, looked up): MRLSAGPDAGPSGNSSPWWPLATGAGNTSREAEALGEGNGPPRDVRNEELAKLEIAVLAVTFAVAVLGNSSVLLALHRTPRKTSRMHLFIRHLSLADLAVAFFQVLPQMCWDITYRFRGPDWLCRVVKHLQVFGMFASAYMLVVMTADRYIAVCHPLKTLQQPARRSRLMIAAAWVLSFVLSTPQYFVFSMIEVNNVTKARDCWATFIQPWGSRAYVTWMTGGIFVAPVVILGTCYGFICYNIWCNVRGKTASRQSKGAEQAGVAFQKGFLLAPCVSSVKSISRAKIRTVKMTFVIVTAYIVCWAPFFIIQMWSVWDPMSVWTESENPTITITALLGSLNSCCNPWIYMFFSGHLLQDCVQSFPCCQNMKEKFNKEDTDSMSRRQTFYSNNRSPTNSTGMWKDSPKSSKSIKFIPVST
Chain of Mu-type opioid receptor (Homo sapiens) (P35372 whole entry): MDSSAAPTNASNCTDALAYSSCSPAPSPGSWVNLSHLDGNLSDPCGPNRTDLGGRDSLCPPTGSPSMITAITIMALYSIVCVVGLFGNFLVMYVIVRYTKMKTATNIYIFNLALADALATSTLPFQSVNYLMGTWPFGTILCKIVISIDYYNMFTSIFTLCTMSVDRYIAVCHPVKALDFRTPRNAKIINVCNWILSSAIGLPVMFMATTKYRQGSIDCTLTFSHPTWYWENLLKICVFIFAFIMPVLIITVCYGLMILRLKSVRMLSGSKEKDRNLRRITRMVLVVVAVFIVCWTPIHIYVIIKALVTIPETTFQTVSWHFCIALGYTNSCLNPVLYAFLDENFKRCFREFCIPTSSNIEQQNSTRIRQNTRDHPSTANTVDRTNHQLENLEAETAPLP
Chain of Alpha-1A adrenergic receptor (Homo sapiens) (P35348 whole entry): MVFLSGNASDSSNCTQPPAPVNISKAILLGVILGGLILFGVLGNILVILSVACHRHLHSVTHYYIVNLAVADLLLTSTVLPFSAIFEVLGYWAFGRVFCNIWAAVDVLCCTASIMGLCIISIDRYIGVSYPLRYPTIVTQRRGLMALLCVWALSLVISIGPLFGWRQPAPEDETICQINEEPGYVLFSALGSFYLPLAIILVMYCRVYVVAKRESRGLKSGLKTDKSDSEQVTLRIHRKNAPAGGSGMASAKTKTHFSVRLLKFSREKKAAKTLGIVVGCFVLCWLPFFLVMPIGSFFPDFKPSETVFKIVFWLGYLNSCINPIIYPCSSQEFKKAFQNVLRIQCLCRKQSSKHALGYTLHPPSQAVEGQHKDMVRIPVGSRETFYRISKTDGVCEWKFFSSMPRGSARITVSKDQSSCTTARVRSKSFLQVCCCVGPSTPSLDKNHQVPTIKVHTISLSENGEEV
Chain of 5-hydroxytryptamine receptor 3A (Homo sapiens) (P46098 whole entry): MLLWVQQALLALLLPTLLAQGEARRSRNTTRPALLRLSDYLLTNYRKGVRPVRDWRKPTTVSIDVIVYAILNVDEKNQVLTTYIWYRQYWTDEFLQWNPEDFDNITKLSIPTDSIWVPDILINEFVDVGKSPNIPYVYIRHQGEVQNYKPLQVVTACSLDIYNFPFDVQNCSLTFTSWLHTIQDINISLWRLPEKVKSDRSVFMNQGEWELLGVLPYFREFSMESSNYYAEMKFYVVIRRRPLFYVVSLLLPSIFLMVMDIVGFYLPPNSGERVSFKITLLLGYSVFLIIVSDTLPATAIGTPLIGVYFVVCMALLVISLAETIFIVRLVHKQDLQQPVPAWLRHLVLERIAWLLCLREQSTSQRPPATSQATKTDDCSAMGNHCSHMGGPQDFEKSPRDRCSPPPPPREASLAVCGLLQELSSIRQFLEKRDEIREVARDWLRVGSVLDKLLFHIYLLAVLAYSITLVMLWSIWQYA
Chain of Prostaglandin G/H synthase 2 (Homo sapiens) (P35354 whole entry): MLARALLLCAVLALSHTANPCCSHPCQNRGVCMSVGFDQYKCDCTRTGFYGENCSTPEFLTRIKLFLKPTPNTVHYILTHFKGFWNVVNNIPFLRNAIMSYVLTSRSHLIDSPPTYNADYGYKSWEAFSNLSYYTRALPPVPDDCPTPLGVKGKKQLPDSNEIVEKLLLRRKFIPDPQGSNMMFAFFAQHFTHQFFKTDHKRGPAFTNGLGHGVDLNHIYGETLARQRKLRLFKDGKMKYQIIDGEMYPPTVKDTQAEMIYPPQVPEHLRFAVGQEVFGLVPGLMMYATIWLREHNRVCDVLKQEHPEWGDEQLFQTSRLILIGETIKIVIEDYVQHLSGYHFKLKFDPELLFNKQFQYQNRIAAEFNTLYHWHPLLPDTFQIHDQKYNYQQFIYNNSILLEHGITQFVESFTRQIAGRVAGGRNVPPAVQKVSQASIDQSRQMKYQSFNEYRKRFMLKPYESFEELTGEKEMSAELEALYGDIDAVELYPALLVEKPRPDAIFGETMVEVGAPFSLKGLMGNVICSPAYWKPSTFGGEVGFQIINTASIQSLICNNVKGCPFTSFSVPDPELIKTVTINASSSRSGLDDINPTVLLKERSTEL
Chain of 5-hydroxytryptamine receptor 1B (Homo sapiens) (P28222 whole entry): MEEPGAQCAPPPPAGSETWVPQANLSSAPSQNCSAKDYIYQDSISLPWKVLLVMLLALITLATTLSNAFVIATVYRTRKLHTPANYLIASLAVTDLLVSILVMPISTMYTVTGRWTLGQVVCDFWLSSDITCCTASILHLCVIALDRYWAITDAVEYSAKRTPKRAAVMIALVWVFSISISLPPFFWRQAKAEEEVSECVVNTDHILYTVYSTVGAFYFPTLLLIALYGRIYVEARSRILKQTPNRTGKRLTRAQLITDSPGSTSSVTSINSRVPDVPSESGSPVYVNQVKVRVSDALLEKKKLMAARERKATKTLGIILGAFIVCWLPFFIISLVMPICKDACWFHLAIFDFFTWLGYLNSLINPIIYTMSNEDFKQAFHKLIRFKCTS

For the molecule `CC(C)(C#Cc1ccc(NC(=O)COc2ccccc2C(=O)c2ccccc2)c(Cl)c1)C(=O)O` [BI 2439], the half-maximal inhibitory concentration (IC50) in data set [1] was 5050 nM (not active).
Take `Cc1c(NC(=O)COc2ccc(Cl)cc2C(=O)c2cc(F)cc(C(F)(F)F)c2)ccc(C(=O)O)c1F` [BI 2540]: the residual activity in data set [2] is 90%; in [3], 88%; in [4], 93%; in data set [5] it was 96%; in [6], 110%; in data set [7], 97%. For the same molecule, the residual activity is 127% in data set [8]; 110% in data set [10]; 100% in data set [11]; 113% in data set [12]; 103% in data set [13]; 103% in [14]. The residual activity is 113% in data set [15]; 110% in data set [16]; 105% in data set [17]; 108% in data set [18]; 100% in data set [19]; 111% in data set [20]. In addition, the residual activity is 111% in data set [21]; 107% in data set [22]; 110% in [23]; 101% in [24]; 87% in data set [25]; 92% in data set [26]. Further, the residual activity in [27] was 98%; in data set [28], 100%; in [29] it was 103%; in data set [30], 103%; in [31], 99%; in [32], 125%. The residual activity in data set [34] was 94%; in [35], 96%; in data set [37] it was 102%; in data set [38] it was 96%; in data set [39], 82%; in [40] it was 84%. Further, the residual activity is 103% in data set [41], 79% in data set [42], 78% in data set [43] and 101% in data set [44]. The activity at 10 µM was 94% (not active) on hERG (KCNH2), 104% (not active) at MAO-A and 96% (not active) in data set [33]. Moreover, the 50% inhibitory concentration (IC50) is 0.76 nM (active) in data set [9], 12 nM (active) in data set [1] and 2.6 nM (active) in data set [36].

What is called IC50 is the concentration needed to halve the response being measured.
